Results reported in US5234934A, “Aminopropanol derivatives, process for their preparation and pharmaceutical compositions comprising the same” (priority 1989, dated 1993).
Where two headings read alike, the source gives them in different places.

Legend:
[1] = acute toxicity test in mice (Litchfield and Wilcoxon); assay type: in vivo, mouse; conditions: mouse, in vivo, po., 14 days observation
Procedure: (§1) The test for acute toxicity was carried out by using 10 white mice (CFLP strain) (both male and female), weighing 18 to 22 g in each dose group. The compounds of the invention were administered orally in a dose of 20 ml/kg.
(§2) The animals were kept in a plastic box on wood chips in a room of room temperature. They could consume tap water and standard mouse feed ad libitum. The toxicity data were determined by the method of Litchfield and Wilcoxon (Litchfield, J. T., Wilcoxon, F. W.: J. Pharmacol. Exp. Ther. 96, 99/1949/).

[2] = system: aconitine-induced ECG alterations; test: animal or person; assay type: in vivo, rat; conditions: for ED50 / change in vivo at 4 mg/kg / change in vivo at 100 mg/kg: Rattus norvegicus; for change in vivo at 4 mg/kg / change in vivo at 100 mg/kg: read-out: Effect % (antiarrhythmic)
Procedure: The test was carried out by using the modified method of Marmo et al. on rats weighing 160 to 200 g. The animals were narcotised by ethyl uretane (1.2 g/kg ip.). Aconitin was administered intravenously in a dose of 75 /ug/kg in the form of a bolus injection. The ECG alterations were monitored in standard II lead by 5 minutes after the administration of aconitine. The observed alterations were classified into classes 0 to 5. The compounds of the invention were administered 2 minutes or 60 minutes before the parenteral or oral administration of aconitine, respectively. […]
class 1: sometimes an extrasystole occurs class 2: each second one is an extrasystole class 3: extrasystoles in groups class 4: each one is an extrasystole class 5: fibrillation, death
(Marmo, E., DiGiacomo, S., Imperatore, A.: Arzeimittel-Forschung 20, 12/1970/)

[3] = system: nervus ischiadicus; test: local analgesic effect (Truant d'Amato's method); assay type: in vivo; conditions: for EC50 %: 0.2 ml injected around nervus ischiadicus; for Duration of effect: in a conc. of 0.5%
Procedure: The tests were carried out according to Truant d'Amato's method. 0.2 ml of test material was injected around the nervus ischiadicus in the middle of femur with a needle of 1 cm length. The criterion of analgesic effect was the lack of the motoric control of foot muscles.
The duration of effect was registered and the 50 percentile effective concentration (EC50) was calculated on the basis of the dose-effect curve. Lidocain was used as comparative material. (Truant, A. P., D'Amato, D.: Acta Chir Scand. 116, 351/1958/)

[4] = system: gastric acid secretion; test: gastric acid secretion test (Shay); assay type: in vivo, rat; conditions: rats
Procedure: The test was carried out according to Shay's operational method. […] On the day of the test the pylorus of the animals was bound under ether narcosis. The test compounds were administered orally 3 hours before the operation. The animals of the control group were administered with the carrier only. 4 hours after the operation the stomach was removed, the content thereof was centrifuged and the amount of free acid was determined by titration with 0.1N sodium hydroxide.

[5] = system: peristalty of stomach and intestines; test: effect exerted on the peristalty of stomach and intestines (Stickney et al., carbon suspension); assay type: in vivo, mouse; conditions: po., mice; for ED50: Mus musculus, read-out: ED50 (antiperistaltic); for TI (therapeutic index): antiperistaltic
Procedure: The antiperistaltic effect of the compounds was examined by the method of Stickney et al. on white mice of both sexes, weighing 20 to 25 g. The compounds to be tested were administered per os 60 minutes before the addition of carbon suspension to groups containing 10 mice each. The animals of the control groups were treated at the same time and in the same manner with the carrier only. The mice were killed 10 minutes after the addition of the carbon suspension, and the whole length of the intestines as well as the length of the intestines filled with carbon suspension were measured.

[6] = absorption judged by ED50 per os/ED50 iv; conditions: in vivo
From the text: The compounds of formula I according to the invention can well be absorbed if administered either orally or parenterally.

[7] = LD50 po. on rat; conditions: in vivo
[8] = system: coronary insufficiency caused by vasopressine; test: antianginal effect on rats (vasopressine coronary insufficiency, Nieschulz); assay type: in vivo, rat; conditions: for ED50: Rattus norvegicus, read-out: ED50 (antianginal)
Procedure: The test was carried out by using rats weighing 180 to 220 g. The animals were narcotised by chloralose urethane (70 to 700 mg/kg ip.). The ECG alterations were registered in standard II lead with the aid of needle electrodes. The antianginal effect was measured with Nieschultz's method. The coronary insufficiency was caused by vasopressine (1 NE/kg, iv.). The size of the T-wave was measured before and after administration of vasopressine in both the control and test groups. The compounds of the invention were administered 2 minutes before the administration of vasopressine. (Nieschulz, O., Popendiker, K., Hoffmann, I.: Arzneimittel-Forschung 5, 680/1955/)

[9] = system: hexobarbital narcosis; test: narcosis potentiating effect (hexobarbital sleeping time); conditions: for ED50: Mus musculus, po, read-out: ED50 (narcosis potentiation); for TI (therapeutic index): narcosis potentiation
Procedure: The narcosis potentiating effect of the compounds of the invention were examined on white mice, with 6 animals in each group. The mice were administered orally with the compounds of the invention, then both the control and the test groups were intravenously added 40 mg/kg of hexobarbital in order to make the mice sleep (Kaergard et al.).

[10] = system: white mice (CFLP strain); test: acute toxicity test in mice (Litchfield and Wilcoxon); assay type: in vivo, mouse; conditions: po., 14 days observation
Procedure: as §1, §2

[11] = system: beta-adrenergic; conditions: background art; cited from earlier work
[12] = system: blood pressure; conditions: background art; cited from earlier work
[13] = system: level of lipids; conditions: background art; cited from earlier work
[14] = iv, read-out: ED50 iv. (antiarrhythmic)
[15] = po, read-out: ED50 (antiarrhythmic, per os)
[16] = Rattus norvegicus, dose 200 mg/kg po., read-out: Inhibition of free acid, %
[17] = iv., rats, vasopressine 1 NE/kg iv

CC(C)N(CC(O)CO/N=C1\CCCC\C1=C/c1ccccc1)C(C)C (racemic) [Example 1, R,S-2-(E)-Phenylmethylene-1-(E)-{3-[bis-(1-methylethyl)-amino]-2-hydroxy-propoxyimino}-cyclohexane]
LD50 at 336 h [1]: 400 mg/kg | ED50 ([2]; iv, read-out: ED50 iv): 1.21 mg/kg | ED50 [2, 14]: 1.21 mg/kg | change in vivo at 4 mg/kg ([2]; iv): -89.5% | ED50 [2, 15]: 27.3 mg/kg | ED50 ([2]; po, read-out: ED50 per os): 24.4 mg/kg | change in vivo at 100 mg/kg ([2]; po): -100% | effect compared to the control compounds regarding the absolute dose ([2]; administered orally): multiplied effect compared to the control compounds | TI (therapeutic index) ([2]; antiarrhythmic, per os, rat): 64.6 | therapeutical activity range, times higher than that of Quinidine ([2]; per os, rats, vs Quinidine): 5.8 times | EC50 % [3]: 0.04% | inhibition in vivo at 200 mg/kg [4, 16]: 70% | ED50 [5]: ~80 mg/kg | TI (therapeutic index) [5]: about 5 | absorption ratio (ED50 po / ED50 iv) [6]: 20.6 | absorption ([6]; po): much better than that of the cited compound of formula (e) | LD50 [7]: 1760 mg/kg

OC(CO/N=C1\CCCC\C1=C/c1ccccc1)CN1CCCCCC1 (racemic) [Example 10, R,S-2-(E)-Phenylmethylene-1-(E)-(3-hexamethylene-imino-2-hydroxypropoxyimino)-cyclohexane]
LD50 at 336 h [1]: 900 mg/kg | change in vivo at 4 mg/kg ([2]; iv): -47% | ED50 [8, 17]: 1.62 mg/kg

CN(C)CCCNCC(O)CO/N=C1\CCCC\C1=C/c1ccccc1 (racemic) [Example 11, R,S-2-(E)-Phenylmethylene-1-(E)-[3-(3-dimethylamino-1-propylamino)-2-hydroxy-propoxyimino]-cyclohexane]
LD50 at 336 h [1]: > 1000 mg/kg | ED50 [8, 17]: 0.93 mg/kg | inhibition in vivo at 200 mg/kg [4, 16]: 62% | ED50 [5]: 100 mg/kg | TI (therapeutic index) [5]: 10

CN1CCN(CC(O)CO/N=C2\CCCC\C2=C/c2c(Cl)cccc2Cl)CC1 (racemic) [Example 36, R,S-2-(E)-(2,6-Dichlorophenyl-methylene)-1-(E)-[3-(4-methyl-1-piperazinyl)-2-hydroxy-propoxyimino]-cyclohexane]
LD50 at 336 h [1]: 700 mg/kg | ED50 [8, 17]: 1.28 mg/kg | ED50 [5]: ~100 mg/kg | TI (therapeutic index) [5]: about 7 | ED50 [9]: 14 mg/kg | TI (therapeutic index) ([9]; mice, po.): 50

CCCNCC(O)CO/N=C1\CCCCC\C1=C/c1ccc(OC)cc1 (racemic) [Example 43, R,S-2-(E)-(4'-Methoxyphenyl-methylene)-1-(E)-(3-propylamino-2-hydroxy-propoxyimino)-cycloheptane]
LD50 at 336 h [1]: 800 mg/kg | ED50 [8, 17]: ~2 mg/kg | inhibition in vivo at 160 mg/kg ([4]; Rattus norvegicus, dose 160 mg/kg po., read-out: Inhibition of free acid, %): 32% | ED50 [9]: 50 mg/kg | TI (therapeutic index) ([9]; mice, po.): 16

CCN(CC)CC(O)CO/N=C1\CCCCC\C1=C/c1ccc(OC)cc1 (racemic) [Example 44, R,S-2-(E)-(4-Methoxyphenyl-methylene)-1-(E)-(3-diethylamino-2-hydroxy-propoxyimino)-cycloheptane]
LD50 at 336 h [1]: 600 mg/kg | ED50 [8, 17]: 1.93 mg/kg

CC(C)NCC(O)CO/N=C1\CCCCC1Cc1ccc(Cl)cc1 (racemic) [Example 47, R,S-2-(E)-(4-Chlorophenyl-methyl)-1-(E)-[3-(1-methylethyl-amino)-2-hydroxy-propoxyimino]-cyclohexane]
LD50 at 336 h [1]: 700 mg/kg | ED50 [8, 17]: 1.29 mg/kg | EC50 % [3]: 0.18% | Duration of effect [3]: 93 min

CCCN(CCC)CC(O)CO/N=C1\CCCCC\C1=C/c1ccc(OC)cc1 (racemic) [Example 51, R,S-2-(E)-(4-Methoxyphenyl-methylene)-1-(E)-(3-dipropylamino-2-hydroxy-propoxyimino)-cycloheptane]
LD50 at 336 h [1]: 100 to 500 mg/kg | ED50 [8, 17]: 0.43 mg/kg | EC50 % [3]: 0.28% | Duration of effect [3]: 103 min

OC(CO/N=C1\CCCC\C1=C/c1ccccc1)CN1CC=C(c2ccccc2)CC1 (racemic) [Example 55, R,S-2-(E)-Phenylmethylene-1-(E)-[3-(4-phenyl-1,2,3,6-tetrahydro)-1-pyridinyl]-2-hydroxy-propoxyimino-cyclohexane]
LD50 at 336 h [1]: > 1000 mg/kg | ED50 ([8]; iv): 1.77 mg/kg

CC(C)CNCC(O)CON=C1CCCCC1=Cc1cccc(Cl)c1 (stereo not shown) [Example 25, R,S-2-(E)-3-Chlorophenylmethylene-1-(E)-[3-(2-methylpropyl-amino)-2-hydroxy-propoxyimino]-cyclohexane]
LD50 [10]: 900 mg/kg

CC(C)NCC(O)CO/N=C1\CCCC\C1=C/c1ccc(Cl)cc1 (stereo not shown) [Example 26, R,S-2-(E)-(4-Chlorophenyl-methylene)-1-(E)-[3-(1-methylethylamino)-2'-hydroxy-propoxyimino]-cyclohexane]
LD50 [10]: more than 1000 mg/kg | ED50 (antianginal) [8, 17]: about 2.0 mg/kg | EC50 % [3]: 0.22% | Duration of effect [3]: 49 min | Inhibition of free acid, % ([4]; dose 100 mg/kg po.): 66% | Inhibition of free acid, % ([4]; dose 200 mg/kg po.): 92% | TI (therapeutic index) ([9]; mice, po.): > 7 | ED50 (narcosis potentiation) ([9]; po., mice, hexobarbital 40 mg/kg iv): 140 mg/kg

CCCNCC(O)CO/N=C1\CCCC\C1=C/c1ccc(Cl)cc1 (stereo not shown) [Example 46, R,S-2-(E)-(4-Chlorophenyl-methylene)-1-(E)-(3-propylamino-2-hydroxypropoxyimino)-cyclohexane]
LD50 [10]: more than 1000 mg/kg | EC50 % [3]: 0.19% | Duration of effect [3]: 81 min

CC(=NOCC(O)CNC(C)(C)C)C1CC1 (stereo not shown) [Falintolol]
beta-adrenergic blocking effect [11]: exhibits beta-adrenergic blocking activity

CC(C)(C)NCC(O)CON=C1c2ccccc2-c2ccccc21 (stereo not shown) [IPS-339]
beta-adrenergic blocking effect [11]: exhibits beta-adrenergic blocking effect

COc1cccc(C=NOCC(O)CN2CCN(c3ccccc3OC)CC2)c1 (stereo not shown) [Paradoxime]
blood pressure reducing activity [12]: shows blood pressure reducing activity

OC(CON=Cc1ccc(Cl)cc1)CN1CCN(c2ccccc2Cl)CC1 (stereo not shown) [Peraclopone]
reduction of the level of lipids [13]: reduces the level of lipids

CC(Cc1ccccc1)NCCC(c1ccccc1)c1ccccc1 (stereo not shown) [Prenilamine, reference compound]
ED50 ([8]; iv): 6.5 mg/kg

C=C[C@H]1C[N@@]2CC[C@H]1C[C@@H]2[C@@H](O)c1ccnc2ccc(OC)cc12 [Quinidine, reference compound]
ED50 [2, 14]: 9.85 mg/kg | change in vivo at 4 mg/kg ([2]; iv): -29% | ED50 [2, 15]: ~100 mg/kg | change in vivo at 100 mg/kg ([2]; po): -52% | LD50 [7]: 1130 mg/kg

R,S-2-(E)-Chlorophenylmethylene-1-(E)-[3-(4-phenyl-1-piperazinyl)-2-hydroxy-propoxyimino]-cyclohexane [Example 24]
LD50 [10]: more than 1000 mg/kg | TI (therapeutic index) [5]: about 7 | ED50 (antiperistaltic) [5]: about 150 mg/kg
